This experiment has as its target T1, Nav1.7 (or SCN9A) channel (Homo sapiens, UniProt Q15858).
T1 construct: expressed in transfected cells
The experiment can be described thus: Nav1.7 (hSCN9A) electrophysiology assay, PatchXpress platform. The format is cell-based. The settings on record: estimated IC50 from single point electrophysiology data, HEK cells stably expressing hSCN9A, held at V1/2 of inactivation, read-out: Nav1.7 EIC50. How it is done:
The ability of the compounds of formula (I) to block the Nav1.7 (or SCN9A) channel were measured using the assay described below.
Human Embryonic Kidney (HEK) cells were transfected with an hSCN9A construct using lipofectamine reagent (Invitrogen), using standard techniques. Cells stably expressing the hSCN9A constructs were identified by their resistance to G-418 (400 μg/ml). Clones were screened for expression using the whole-cell voltage-clamp technique.
HEK cells stably transfected with hSCN9A were maintained in DMEM medium supplemented with 10% heat-inactivated fetal bovine serum and 400 μg/ml G-418 in an incubator at 37° C. with a humidified atmosphere of 10% CO2. For HTS, cells were harvested from flasks by trypsinization and replated in an appropriate multi-well plate (typically 96 or 384 wells/plate) such that confluence would be achieved within 24 hours of plating. For electrophysiological studies, cells were removed from the culture flask by brief trypsinization and re-plated at low density onto glass cover slips. Cells were typically used for electrophysiological experiments within 24 to 72 hours after plating.
Cover slips containing HEK cells expressing hSCN9A were placed in a bath on the stage of an inverted microscope and perfused (approximately 1 ml/minutes) with extracellular solution of the following composition: 138 mM NaCl, 2 mM CaCl2, 5.4 mM KCl, 1 mM MgCl2, 10 mM glucose, and 10 mM HEPES, pH 7.4, with NaOH. […] The osmolarity of the extracellular and intracellular solutions was 300 mOsm/kg and 295 mOsm/kg, respectively. All recordings were made at room temperature (22-24° C.) using AXOPATCH 200B amplifiers and PCLAMP software (Axon Instruments, Burlingame, Calif.).
hSCN9A currents in HEK cells were measured using the whole-cell configuration of the patch-clamp technique (Hamill et al., 1981). Uncompensated series resistance was typically 2 to 5 mega ohms and >85% series resistance compensation was routinely achieved. […] Current records were acquired at 20 to 50 KHz and filtered at 5 to 10 KHz.
HEK cells stably transfected with hSCN9A were viewed under Hoffman contrast optics and placed in front of an array of flow pipes emitting either control or compound-containing extracellular solutions. All compounds were dissolved in dimethyl sulfoxide to make 10 mM stock solutions, which were then diluted into extracellular solution to attain the final concentrations desired. […] The voltage-dependence of inactivation was determined by applying a series of depolarizing prepulses (8 sec long in 10 mV increments) from a negative holding potential. The voltage was then immediately stepped to 0 mV to assess the magnitude of the sodium current. Currents elicited at 0 mV were plotted as a function of prepulse potential to allow estimation of the voltage at which 50% of the channels were inactivated (midpoint of inactivation or V1/2). Compounds were tested for their ability to inhibit hSCN9A sodium channels by activating the channel with a 20 msec voltage step to 0 mV following an 8 second conditioning prepulse to the empirically determined V1/2. Compound effect (% inhibition) was determined by difference in current amplitude before and after application of test compounds. […] Inhibition values <20% and >80% were excluded from the calculation.
Electrophysiological assays were conducted with PatchXpress 7000 hardware and associated software (Molecular Devices Corp). All assay buffers and solutions were identical to those used in conventional whole-cell voltage clamp experiments described above. hSCN9A cells were grown as above to 50%-80% confluency and harvested by trypsinization. Trypsinized cells were washed and resuspended in extracellular buffer at a concentration of 1×10^6 cells/ml. The onboard liquid handling facility of the PatchXpress was used for dispensing cells and application of test compounds.

Counter-ions that a name gives are not always drawn.

T1 sequence (Q15858 whole entry): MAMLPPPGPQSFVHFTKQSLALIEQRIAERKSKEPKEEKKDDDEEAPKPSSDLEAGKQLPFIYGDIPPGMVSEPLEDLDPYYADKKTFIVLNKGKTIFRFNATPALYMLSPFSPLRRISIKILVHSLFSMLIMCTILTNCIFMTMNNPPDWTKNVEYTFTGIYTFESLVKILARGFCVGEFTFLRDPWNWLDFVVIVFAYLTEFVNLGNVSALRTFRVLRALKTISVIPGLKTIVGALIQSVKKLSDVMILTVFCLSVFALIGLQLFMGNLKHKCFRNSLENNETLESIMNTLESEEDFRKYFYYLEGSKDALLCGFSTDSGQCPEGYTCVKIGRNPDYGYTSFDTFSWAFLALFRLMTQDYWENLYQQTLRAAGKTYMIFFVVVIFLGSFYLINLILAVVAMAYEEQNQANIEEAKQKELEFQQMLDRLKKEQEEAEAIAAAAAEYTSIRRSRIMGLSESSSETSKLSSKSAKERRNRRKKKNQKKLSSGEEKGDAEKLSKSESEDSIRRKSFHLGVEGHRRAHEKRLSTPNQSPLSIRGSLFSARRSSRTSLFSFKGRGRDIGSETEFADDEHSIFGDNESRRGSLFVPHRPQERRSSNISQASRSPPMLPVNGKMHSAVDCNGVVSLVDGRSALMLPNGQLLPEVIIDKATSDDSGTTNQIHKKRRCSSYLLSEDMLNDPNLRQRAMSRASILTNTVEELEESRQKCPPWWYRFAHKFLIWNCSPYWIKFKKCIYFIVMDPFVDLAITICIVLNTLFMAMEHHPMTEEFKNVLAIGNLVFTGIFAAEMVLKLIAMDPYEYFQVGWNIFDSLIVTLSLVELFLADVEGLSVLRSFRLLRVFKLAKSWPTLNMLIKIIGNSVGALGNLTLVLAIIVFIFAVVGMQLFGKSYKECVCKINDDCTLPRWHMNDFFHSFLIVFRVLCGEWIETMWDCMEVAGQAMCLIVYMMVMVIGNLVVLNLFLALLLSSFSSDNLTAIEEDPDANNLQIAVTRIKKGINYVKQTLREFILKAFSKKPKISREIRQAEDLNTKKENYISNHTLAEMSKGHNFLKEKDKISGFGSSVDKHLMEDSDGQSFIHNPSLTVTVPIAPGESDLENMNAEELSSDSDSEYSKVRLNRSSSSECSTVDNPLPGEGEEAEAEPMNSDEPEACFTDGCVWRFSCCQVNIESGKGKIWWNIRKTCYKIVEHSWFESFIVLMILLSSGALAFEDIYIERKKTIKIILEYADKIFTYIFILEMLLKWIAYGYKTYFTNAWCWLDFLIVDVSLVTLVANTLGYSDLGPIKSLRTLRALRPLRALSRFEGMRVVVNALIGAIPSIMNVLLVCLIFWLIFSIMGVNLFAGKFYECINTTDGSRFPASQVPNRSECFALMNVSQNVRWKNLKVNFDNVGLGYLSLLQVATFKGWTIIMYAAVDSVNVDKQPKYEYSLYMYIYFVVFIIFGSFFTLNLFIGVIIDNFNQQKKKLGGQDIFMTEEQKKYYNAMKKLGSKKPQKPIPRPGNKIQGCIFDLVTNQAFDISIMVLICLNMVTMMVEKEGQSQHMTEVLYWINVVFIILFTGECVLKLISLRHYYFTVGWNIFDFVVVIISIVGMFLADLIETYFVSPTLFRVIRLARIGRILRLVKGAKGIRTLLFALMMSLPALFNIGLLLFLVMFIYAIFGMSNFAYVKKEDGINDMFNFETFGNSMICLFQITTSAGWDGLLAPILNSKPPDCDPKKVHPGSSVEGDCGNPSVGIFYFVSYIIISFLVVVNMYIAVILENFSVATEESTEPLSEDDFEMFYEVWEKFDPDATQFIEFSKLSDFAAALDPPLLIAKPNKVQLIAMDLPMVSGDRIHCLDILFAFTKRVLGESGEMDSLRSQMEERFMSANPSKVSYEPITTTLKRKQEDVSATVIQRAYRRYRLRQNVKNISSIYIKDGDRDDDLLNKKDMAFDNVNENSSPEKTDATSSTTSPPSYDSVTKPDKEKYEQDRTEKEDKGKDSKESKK

As for `Cn1nccc1-c1cc(Cl)ccc1OCc1ccc(C(=O)NS(C)(=O)=O)cc1` [Example 38, 4-{[4-Chloro-2-(1-methyl-1H-pyrazol-5-yl)phenoxy]methyl}-N-(methylsulfonyl)benzamide diethylamine salt], the IC50 is greater than 3000 nM.
The figure for `CCc1ccc(OCc2ccc(C(=O)NS(C)(=O)=O)c(F)c2)cc1` [Example 40, 4-[(4-Ethylphenoxy)methyl]-2-fluoro-N-(methylsulfonyl)benzamide diethylamine salt] is 560 nM.
Then `CCc1ccc(OCc2ccc(C(=O)NS(C)(=O)=O)c(OC)c2)cc1` [Example 41, 4-[(4-Ethylphenoxy)methyl]-2-methoxy-N-(methylsulfonyl)benzamide diethylamine salt], with 3700 nM.
Then `CCc1ccc(OCc2ccc(C(=O)NS(C)(=O)=O)cc2OC)cc1` [Example 42, 4-[(4-Ethylphenoxy)methyl]-3-methoxy-N-(methylsulfonyl)benzamide diethylamine salt], with 250 nM; and `CCc1ccc(OCc2ccc(C(=O)NS(C)(=O)=O)c(C)c2)cc1` [Example 43, 4-[(4-Ethylphenoxy)methyl]-2-methyl-N-(methylsulfonyl)benzamide diethylamine salt], with 4200 nM.
Regarding `CS(=O)(=O)NC(=O)c1cc(F)c(COc2ccc(C#N)cc2Cl)cc1F` [Example 44, 4-[(2-Chloro-4-cyanophenoxy)methyl]-2,5-difluoro-N-(methylsulfonyl)benzamide], the IC50 was 2000 nM.
Then `CS(=O)(=O)NC(=O)c1cc(F)c(COc2ccc(Cl)c(C#N)c2)cc1F` [Example 47, 4-[(4-Chloro-3-cyanophenoxy)methyl]-2,5-difluoro-N-(methylsulfonyl)benzamide], with 1400 nM; and `CS(=O)(=O)NC(=O)c1cc(F)c(COc2ccc(F)c(F)c2)cc1F` [Example 48, 4-[(3,4-Difluorophenoxy)methyl]-2,5-difluoro-N-(methylsulfonyl)benzamide], with 1100 nM; and `CS(=O)(=O)NC(=O)c1cc(F)c(COc2ccc(Cl)c(F)c2)cc1F` [Example 49, 4-[(4-Chloro-3-fluorophenoxy)methyl]-2,5-difluoro-N-(methylsulfonyl)benzamide], with 160 nM.
Regarding `CS(=O)(=O)NC(=O)c1cc(F)c(COc2ccc(Cl)c(OC(F)F)c2)cc1F` [Example 50, 4-{[4-chloro-3-(difluoromethoxy)phenoxy]methyl}-2,5-difluoro-N-(methylsulfonyl)benzamide], the IC50 was 220 nM.
Then `CS(=O)(=O)NC(=O)c1cc(F)c(COc2ccc(Cl)c(OC(F)(F)F)c2)cc1F` [Example 51, 4-((4-Chloro-3-(trifluoromethoxy)phenoxy)methyl)-2,5-difluoro-N-(methylsulfonyl)benzamide], with 12 nM; and `CS(=O)(=O)NC(=O)c1cc(F)c(COc2ccc(OC(F)F)c(Cl)c2)cc1F` [Example 52, 4-{[3-Chloro-4-(difluoromethoxy)phenoxy]methyl}-2,5-difluoro-N-(methylsulfonyl)benzamide], with 130 nM.
As for `CS(=O)(=O)NC(=O)c1cc(F)c(COc2ccc(OC(F)(F)F)c(Cl)c2)cc1F` [Example 53, 4-((3-Chloro-4-(trifluoromethoxy)phenoxy)methyl)-2,5-difluoro-N-(methylsulfonyl)benzamide], the IC50 was 13 nM.
Then `CS(=O)(=O)NC(=O)c1cc(F)c(COc2ccc(Cl)c(C(F)(F)F)c2)cc1F` [Example 54, 4-((4-Chloro-3-(trifluoromethyl)phenoxy)methyl)-2,5-difluoro-N-(methylsulfonyl)benzamide], with 130 nM; and `CS(=O)(=O)NC(=O)c1cc(F)c(COc2cc(F)ccc2F)cc1F` [Example 55, 4-[(2,5-Difluorophenoxy)methyl]-2,5-difluoro-N-(methylsulfonyl)benzamide], with 570 nM; and `CS(=O)(=O)NC(=O)c1cc(F)c(COc2cccc(OC(F)(F)F)c2)cc1F` [Example 56, 4-[(3-Trifluoromethoxy)methyl]-2,5-difluoro-N-(methylsulfonyl)benzamide], with 88 nM.
Then `CS(=O)(=O)NC(=O)c1cc(F)c(COc2cc(F)c(F)cc2F)cc1F` [Example 57, 2,5-Difluoro-N-(methylsulfonyl)-4-[(2,4,5-trifluorophenoxy)methyl]benzamide], with 1100 nM.
The figure for `CS(=O)(=O)NC(=O)c1cc(Cl)c(OCc2ccc(C(F)(F)F)c(Cl)c2)cc1F` [Example 58, 5-Chloro-4-(3-chloro-4-(trifluoromethyl)benzyloxy)-2-fluoro-N-(methylsulfonyl)benzamide] is 21 nM; for `CS(=O)(=O)NC(=O)c1cc(Cl)c(OCc2ccc(Cl)c(C(F)(F)F)c2)cc1F` [Example 59, 5-Chloro-4-(4-chloro-3-(trifluoromethyl)benzyloxy)-2-fluoro-N-(methylsulfonyl)benzamide] it is 14 nM; for `CS(=O)(=O)NC(=O)c1cc(Cl)c(COc2ccc(OC(F)(F)F)c(Cl)c2)cc1F` [Example 60, 5-Chloro-4-((3-chloro-4-(trifluoromethoxy)phenoxy)methyl)-2-fluoro-N-(methylsulfonyl)benzamide] it is 29 nM.
On to `CS(=O)(=O)NC(=O)c1cc(Cl)c(COc2ccc(OC(F)F)c(Cl)c2)cc1F` [Example 61, 5-Chloro-4-{[3-chloro-4-(difluoromethoxy)phenoxy]methyl}-2-fluoro-N-(methylsulfonyl)benzamide], for which the IC50 is less than 300 nM.
The figure for `CS(=O)(=O)NC(=O)c1cc(Cl)c(COc2ccc(Cl)c(OC(F)F)c2)cc1F` [Example 62, 5-Chloro-4-{[4-chloro-3-(difluoromethoxy)phenoxy]methyl}-2-fluoro-N-(methylsulfonyl)benzamide] is less than 3000 nM.
Then `CS(=O)(=O)NC(=O)c1cc(Cl)c(COc2ccc(Cl)c(OC(F)(F)F)c2)cc1F` [Example 63, 5-Chloro-4-{[4-chloro-3-(trifluoromethoxy)phenoxy]methyl}-2-fluoro-N-(methylsulfonyl)benzamide], with 35 nM.
Then `COc1cc(Cl)ccc1OCc1ccc(C(=O)NS(C)(=O)=O)cc1` [Example 64, 4-[(4-Chloro-2-methoxyphenoxy)methyl]-N-(methylsulfonyl)benzamide], with greater than 3000 nM; and `CS(=O)(=O)NC(=O)c1ccc(COc2ccc(C(F)(F)F)c(Cl)c2)cc1` [Example 65, 4-{[3-Chloro-4-(trifluoromethyl)phenoxy]methyl}-N-(methylsulfonyl)benzamide], with 80 nM.
With `COc1cc(COc2cc(F)c(C(=O)NS(C)(=O)=O)cc2F)ccc1Cl` [Example 66, 4-(4-Chloro-3-methoxybenzyloxy)-2,5-difluoro-N-(methylsulfonyl)benzamide], the IC50 is greater than 1000 nM.
Then `CS(=O)(=O)NC(=O)c1cc(F)c(OCc2ccc(Cl)c(C#N)c2)cc1F` [Example 67, 4-(4-Chloro-3-cyanobenzyloxy)-2,5-difluoro-N-(methylsulfonyl)benzamide Diethylamine salt], with 9200 nM; and `COc1ccc(COc2cc(F)c(C(=O)NS(C)(=O)=O)cc2F)cc1Cl` [Example 68, 4-(3-Chloro-4-methoxybenzyloxy)-2,5-difluoro-N-(methylsulfonyl)benzamide], with 9800 nM; and `CS(=O)(=O)NC(=O)c1ccc(COc2ccc(Cl)c(Cl)c2)c(C#N)c1` [Example 69, 5-Cyano-4-((3,4-dichlorophenoxy)methyl)-N-(methylsulfonyl)benzamide Diethylamine salt], with 240 nM.
`CS(=O)(=O)NC(=O)c1cc(F)c(OCc2ccc(Cl)c(C(F)(F)F)c2)cc1F` [Example 70, 4-(4-Chloro-3-(trifluoromethyl)benzyloxy)-2,5-difluoro-N-(methylsulfonyl) benzamide]: the IC50 is 160 nM.

Values taken from patent US9096500B2, “Acyl sulfonamide compounds” (Pfizer Limited, priority 2010, dated 2015).
